≈ marks a conversion by molar mass, not a printed value. Where two headings read alike, the source gives them in different places. Each block holds one compound with its values, some of them ahead of it.
Legend:
B. subtilis = system: B. subtilis
Procedure: (§1) Determining the MIC value is a standard technique well known to the skilled person, in particular the MIC value can be measured using method M07-A9 (CLSI standard, January 2012, Vol. 32, No. 2, “Methods for Dilution Antimicrobial Susceptibility Tests for Bacteria That Grow Aerobically”).
(§2) Different microorganisms (from glycerol stock) were plated out on blood agar and incubated at 37° C. for 24 hours. A colony was selected and 2×5 mL of TSB was inoculated. The samples and a sterile control were cultured for 16-20 hours at 37° C. Comparative compound B is nisin acting as a control. […] Comparative compounds A, D and E are also control compounds not part of the present invention.
(§3) The overnight cultures were diluted to 0.5×10^6 CFU in TSB. 50 μL of the bacterial solution was added to each well and the plates were sealed with an adhesive membrane and incubated at 37° C. for 16 hours. The next day, the plates were visually inspected for bacterial growth.

E. coli = system: E. coli
Procedure: as §1, §2, §3

S. aureus = system: S. aureus
Procedure: as §1, §2, §3

M. luteus = assay type: cell-based
Procedure: as §1
(§4) Different microorganisms (from glycerol stock) were plated out on blood agar and incubated at 37° C. for 24 hours. A colony was selected and 2×5 mL of TSB was inoculated. The samples and a sterile control were cultured for 16-20 hours at 37° C. Comparative compound B is nisin acting as a control. Comparative compound C is vancomycin, also acting as a control. Comparative compounds A, D and E are also control compounds not part of the present invention.
as §3

VRE 155 = assay type: cell-based
Procedure: as §1, §4, §3

MRSA USA300 = assay type: cell-based, Staphylococcus aureus
Procedure: as §1, §4, §3

MRSA WKZ2 = assay type: cell-based, Staphylococcus aureus; conditions: WKZ2
Procedure: as §1, §4, §3

erythrocytes = assay: Hemolysis assay; conditions: human erythrocytes, 1 h, up to the highest concentration tested (64 μg/mL)
Procedure: Human whole blood was centrifuged at 600×g for 15 min and levels of plasma and hematocrit were marked on the tube. Plasma was removed and the erythrocytes washed 3× with PBS (centrifuging at 600×g for 15 mins). After discarding the supernatant, the packed cells were stored on ice. 100 μL of the peptides (128 μg/mL in PBS, 2% DMSO) as well as a control solution comprised of 2% DMSO in PBS were added to the top row of a polypropylene, round-bottom 96 well plate and 50 μL of PBS to the rest of the wells. The peptides and the DMSO control solutions were then diluted serially down the rows. 200 μL of the packed cells were added to PBS (10 mL) and 50 μL of this suspension was added to each well. A column with DI water containing 0.1% Triton X-100 was used as the 100% lysis control, and the column containing the serially-diluted PBS (1.0% DMSO) control served as the 0% lysis reference. The cells were incubated at 37° C. for 1 h. After incubation the plates were centrifuged (800×g, 5 min) and 25 μL of the supernatant was added to 100 μL DI water in a flat-bottom plate (polystyrene). The absorption at 414 nm was recorded to measure the amount of free hemoglobin.

MIC values B. subtilis (B. subtilis): 4 µg/mL (≈ 2.59 µM) | MIC values E. coli (E. coli): >64 µg/mL | MIC values S. aureus (S. aureus): 8 µg/mL (≈ 5.18 µM) | MIC values M. luteus (M. luteus): 2 µg/mL (≈ 1.3 µM) | MIC values VRE 155 (VRE 155): 8 µg/mL (≈ 5.18 µM) | MIC values MRSA USA300 (MRSA USA300; USA300): 8 µg/mL (≈ 5.18 µM) | MIC values MRSA WKZ2 (MRSA WKZ2): 8 µg/mL (≈ 5.18 µM)
SMILES: C=C1NC(=O)[C@H]([C@@H](C)CC)NC(=O)[C@H](NC(=O)C(=CC)NC(=O)[C@@H](N)[C@@H](C)CC)CSC[C@@H](C(=O)N[C@H]2C(=O)N3CCC[C@H]3C(=O)NCC(=O)N[C@H](C(=O)N[C@@H](CCCCN)C(=O)NCCCn3cc(CNC(=O)c4ccc(-c5ccc(-c6ccccc6)cc5)cc4)nn3)CS[C@H]2C)NC(=O)[C@H](CC(C)C)NC1=O [Compound (24) with R1-group (e)]

MIC values B. subtilis (B. subtilis): >64 µg/mL | MIC values E. coli (E. coli): >64 µg/mL | MIC values S. aureus (S. aureus): >64 µg/mL | MIC values M. luteus (M. luteus): 8 µg/mL (≈ 4.97 µM)
SMILES: C=C1NC(=O)[C@H]([C@@H](C)CC)NC(=O)[C@H](NC(=O)C(=CC)NC(=O)[C@@H](N)[C@@H](C)CC)CSC[C@@H](C(=O)N[C@H]2C(=O)N3CCC[C@H]3C(=O)NCC(=O)N[C@H](C(=O)N[C@@H](CCCCN)C(=O)NCCCn3cc(CCC(=O)N(CCCCCCCCCC)CCCCCCCCCC)nn3)CS[C@H]2C)NC(=O)[C@H](CC(C)C)NC1=O [Compound (24) with R1-group (b)]

SMILES: C=C1NC(=O)[C@H]([C@@H](C)CC)NC(=O)[C@H](NC(=O)C(=CC)NC(=O)[C@@H](N)[C@@H](C)CC)CSC[C@@H](C(=O)N[C@H]2C(=O)N3CCC[C@H]3C(=O)NCC(=O)N[C@H](C(=O)N[C@@H](CCCCNC(C)=O)C(=O)NCCCCCCCCCCCC)CS[C@H]2C)NC(=O)[C@H](CC(C)C)NC1=O [Compound (20)]
MIC values VRE 155 (VRE 155; duplicate experiments): 4 µg/mL (≈ 2.94 µM) | MIC values MRSA USA300 (MRSA USA300; duplicate experiments): >64 µg/mL | hemolysis (erythrocytes): no detectable hemolysis

SMILES: C=C1NC(=O)[C@H]([C@@H](C)CC)NC(=O)[C@H](NC(=O)C(=CC)NC(=O)[C@@H](N)[C@@H](C)CC)CSC[C@@H](C(=O)N[C@H]2C(=O)N3CCC[C@H]3C(=O)NCC(=O)N[C@H](C(=O)N[C@@H](CCCCN)C(=O)NCCCCCC)CS[C@H]2C)NC(=O)[C@H](CC(C)C)NC1=O [(2)]
MIC values B. subtilis (B. subtilis; duplicate experiments): 32 µg/mL (≈ 25.9 µM) | MIC values E. coli (E. coli; duplicate experiments): >64 µg/mL | MIC values S. aureus (S. aureus; duplicate experiments): >64 µg/mL | MIC values M. luteus (M. luteus; duplicate experiments): 2 µg/mL (≈ 1.62 µM)

Reference: patent US20170362283A1, “NISIN-BASED COMPOUNDS AND USE THEREOF IN THE TREATMENT OF BACTERIAL INFECTIONS” (UNIVERSITEIT UTRECHT HOLDING B.V., priority 2015, published 2017)
